US20230233583A1, “USE OF PHYTOCANNABINOIDS FOR TREATING MULTIPLE MYELOMA” (priority 2020, published 2023)

Legend:
[1] = test system: U266; experiment: MTT cytotoxicity assay in U266 MM cell line; conditions: for IC50: Homo sapiens, U-266, 72 h, read-out: IC50 (μM) ± S.D.; for % VIABILITY ± S.D.: daily, 72 hours, vs vehicle
Protocol: (§1) MTT cytotoxicity assay: MM cell lines (4×10^4 cells/ml) were seeded in 96-well plates, in a final volume of 100 μl/well. After 24 hours, CBG, CBC, CBN, CBDV alone and in combination or vehicle were added at different concentrations, for 72 hours. At least six replicates were used for each treatment. At the indicated time point, cell viability was assessed by adding 0.8 mg/ml of 3-[4,5-dimethylthiazol-2-yl]-2,5 diphenyl tetrazolium bromide (MTT) (Sigma-Aldrich) to the media. After 3 hours, the plates were centrifuged, the supernatant was removed, and the pellet was solubilized with 100 μl/well dimethyl sulfoxide (DMSO). The absorbance of the samples against a background control (medium alone) was measured at 570 nm using an ELISA reader microliter plate (BioTek™ Instruments, Winooski, Vt., USA).
(§2) Cells were treated with different doses of CBG, CBC, CBN and CBDV (up to 100 μM) and percentage of cell viability was evaluated by the MTT assay.
(§3) The cannabinoids were administered daily for 72 hours, as in previous experiments at the desired doses. Each combination was evaluated in six wells and in two separate experiments. MTT assay was used to analyze the cell cytotoxicity. The values in the tables are represented as % of cell viability compared to vehicle-treated cells.

[2] = test system: H2AX levels in MM cell lines; experiment: Western blot analysis for H2AX; type: cell-based, human; conditions: 48 hours, daily; CBG, CBN, CBDV 25 μM, CBC 75 μM
Protocol: 4×10^4 cells were plated in 6 well plates and treated for 48 hours with daily administration of CBG (25 μM; FIG. 17), CBC (75 μM; FIG. 18), CBN (25 μM; FIG. 19) or CBDV (25 μM; FIG. 20). Densitometric analysis was carried out by evaluating two independent experiments by a Chemidoc using the Quantity One software (BioRad, Hercules, USA). H2AX densitometry values were normalized to GAPDH used as loading control and normalized with non-treated cells. Densitometric values shown are the mean±SE of two separate experiments.
Western blot analysis for H2AX: 4×10^4 cells were plated in 6-well plates and treated daily for 48 hours with CBG, CBN or CBDV (25 μM) or CBC (75 μM). Ten micrograms of the myeloma cell line lysates were then separated on a SDS-polyacrylamide gel, transferred onto Hybond-C extra membranes (GE Healthcare), blocked with 5% of Bovine Serum Albumin (BSA) in phosphate buffered saline (PBS)-Tween 20, immunoblotted with rabbit anti-phospho-histone H2AX (Ser139) (1:1000, #9718, Cell Signaling) and rabbit anti-glyceraldehyde-3-phosphate dehydrogenase (GAPDH, 1:3000, #2118, OriGene, Rockville, Md., USA) antibodies incubated overnight and then incubated with their respective HRP-conjugated anti-rabbit (1:2000, Cell Signaling) antibodies for 1 hour. The detection was performed using the LiteAblot™ PLUS or the LiteAblot™ TURBO (EuroClone, Milano, Italy) kits and densitometric analysis was carried out by evaluating three independent experiments by a Chemidoc using the Quantity One software (BioRad, Hercules, USA). H2AX densitometry values were normalized to GAPDH used as loading control and normalized with non-treated cells. Densitometric values shown are the mean±SE of three separate experiments.
(§4) Phytocannabinoids induce necrotic cell death in MM cell lines: To evaluate the cytotoxic mechanism induced by the phytocannabinoids, MM cell lines were treated daily with a cytotoxic dose for each phytocannabinoid (CBG: 25 μM; CBC 75 μM; CBN 25 μM; CBDV 25 μM) for 48 hours and then Annexin-V/PI cell positivity was evaluated by FACS analysis. The results evidenced that all of the phytocannabinoids induced necrotic cell death but had different efficacies (FIGS. 5-16). To confirm the necrotic cell death mechanism, MM cell lines were treated as above and DNA damage was evaluated by H2AX (a marker to examine the DNA damage produced and the subsequent repair of the DNA lesion) Western blot analysis and Comet assay (permits the analysis of DNA damage in single cell preparations). The result confirmed the DNA damage induced by the phytocannabinoid analysed. In particular, an increase of H2AX levels were observed by Western blot (FIGS. 17-20) and DNA damage by Comet assay that evidenced structures resembling comets in the treated cell lines (FIGS. 21-24).

[3] = test system: SKO; experiment: MTT cytotoxicity assay in SKO MM cell line; conditions: for IC50: Homo sapiens, 72 h, read-out: IC50 (μM) ± S.D.; for % VIABILITY ± S.D.: SKO, daily, 72 hours, vs vehicle
Protocol: as §1, §2, §3

[4] = test system: MM cell lines U266, SKO and RPMI; experiment: Annexin-V/PI staining, FACS analysis; type: cell-based, human; conditions: 48 hours, daily, CBG, CBN, CBDV 25 μM, CBC 75 μM
Protocol: Cell lines were treated for 48 hours with CBG (25 μM), CBN (25 μM), CBDV (25 μM) or CBC (75 μM) and the percentage of Annexin-V/PI positive cells were determined by FACS analysis. Values in overlays on each plot: upper left=necrotic cells; upper right=late death cells (both apoptotic and necrotic); lower left=live cells; and lower right=apoptotic cells. Data for each phytocannabinoid (lower plots in each Figure) expressed as percentage of PI positive cells with respect to vehicle treated cells (upper plots in each Figure).
Apoptosis assays and PI staining: Cell death was evaluated using the Annexin V-FITC Apoptosis detection Kit (eBioscience) followed by biparametric fluorescence-activated cell sorting (FACS) analysis. Cells, at a density of 4×10^4 cells/ml, were treated with CBG, CBC, CBN or CBDV for a maximum of 48 hours, with daily administration, and then incubated with Annexin V-FITC and propidium iodide (PI), following the protocol provided. The percentage of positive cells determined over 10,000 events was analysed on a FACScan cytofluorimeter using the CellQuest software.
as §4

[5] = in vitro; type: cell-based, human; conditions: human, HuOB, daily, 72 hours, vs vehicle, read-out: % VIABILITY ± S.D.; for viability at 72 h, 12.5 μM: single phytocannabinoid 12.5 μM; for viability at 72 h, 25 μM: single phytocannabinoid 25 μM
Protocol: (§5) At least six replicates were used for each treatment.
(§6) Cell culture: The HuOB, an immortalized human osteoblast cell line derived from femoral head (INS-CI-1005, Inscreeex GmbH, Germany) was grown in HuOB Maintenance Medium (INS-ME-1006).
(§7) IC50 values, relative to daily administration, were obtained. The efficacy in reducing cell viability was generally highest for CBDV, followed by CBN, CBC and CBG.
(§8) Phytocannabinoid combinations in HuOB cell line viability: Before setting up the co-culture experiments with HuOB and MM cell lines, the less cytotoxic doses of phytocannabinoid combinations were evaluated in HuOB. […] The standard deviation of the data reported was <10%. […] Additionally, a triple combination with CBG, CBC and CBN at 12.5 μM for each phytocannabinoid, was performed (Table 9).

[6] = test system: HuOB cell line; experiment: cells; type: cell-based, human; conditions: for IC50: Homo sapiens, 72 h, read-out: IC50 (μM) ± S.D.
Protocol: as §5, §6, §7, §8

[7] = U266, single phytocannabinoid 12.5 μM
[8] = U266, single phytocannabinoid 25 μM
[9] = single phytocannabinoid 12.5 μM

Row | Compound | IC50 [1] [µM] | % VIABILITY ± S.D. [1, 7] [%] | % VIABILITY ± S.D. [1, 8] [%] | H2AX levels by Western blot, in words [2] | IC50 [3] [µM] | % VIABILITY ± S.D. [3, 9] [%] | % VIABILITY ± S.D. ([3]; single phytocannabinoid 25 μM) [%] | necrotic cell death (Annexin-V/PI positive cells), in words [4] | viability at 72 h, 12.5 μM [5] [%] | viability at 72 h, 25 μM [5] [%] | IC50 [6] [µM] | cytotoxicity in HuOB cell line, in words ([6]; HuOB, 72 hours, daily administration)
1 | CCCCCc1cc(O)c(C/C=C(\C)CCC=C(C)C)c(O)c1 [CBG, 2-[(2E)-3,7-dimethylocta-2,6-dienyl]-5-pentylbenzene-1,3-diol] | 35.9 ± 2.2 | 97.4 ± 6.5 | 87.7 ± 5.8 | increased H2AX levels | 35 ± 1.8 | 105.4 ± 4.4 | 84.6 ± 5.5 | induce necrosis | 104 ± 8.2 | 96.4 ± 7.3 | 44.8 ± 1.04 | 
2 | C=C(C)[C@@H]1CCC(C)=C[C@H]1c1c(O)cc(CCC)cc1O [CBDV, 2-[(1R,6R)-3-methyl-6-prop-1-en-2-ylcyclohex-2-en-1-yl]-5-propylbenzene-1,3-diol] | 26.7 ± 1.3 | 88.6 ± 7.2 | 76.2 ± 6.5 | increased H2AX levels | 26.5 ± 2.1 | 82.1 ± 5.2 | 54.6 ± 4.4 | induce necrosis | 72.1 ± 5.8 | 21.2 ± 1.1 | 14.3 ± 1 | high cytotoxicity
3 | CCCCCc1cc(O)c2c(c1)OC(C)(CCC=C(C)C)C=C2 (stereo not drawn) [CBC, 2-methyl-2-(4-methylpent-3-enyl)-7-pentylchromen-5-ol] | 78.8 ± 3.4 | 106.2 ± 3.5 | 101.2 ± 7.2 | increased H2AX levels | 69.7 ± 3.5 | 96.5 ± 6.7 | 94.3 ± 6.3 | induce necrosis | 100 ± 8.3 | 99.8 ± 8.1 | 42.4 ± 1.05 | 
4 | CCCCCc1cc(O)c2c(c1)OC(C)(C)c1ccc(C)cc1-2 [CBN, 6,6,9-trimethyl-3-pentylbenzo[c]chromen-1-ol] | 26.5 ± 1.8 | 89.6 ± 6.6 | 61.1 ± 4.8 | increased H2AX levels | 28.5 ± 2.2 | 89.2 ± 5.9 | 60.6 ± 3.8 | induce necrosis | 117 ± 7.7 | 81.7 ± 7.7 | 29 ± 3.07 | 
